Test results published in patent publication US9593108B2, “Compounds and methods for antiviral treatment” (PTC Therapeutics, Inc., priority 2009, dated 2017).

Experiments:
[1] = tested on: HCV replicon RNA (GenBank Accession No. AJ242654); assay: HCV Replicon Assay (replicon RNA reduction and/or Fluc reporter signal); assay type: cell-based, Hepatitis C virus; conditions: Hepatitis C virus, 72 h, replicon-containing cells cultured with test compound for up to 3 days
How it was run: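 IC50 values mostly reflect the drop in replicon RNA, though Fluc reporter signal may also be used. Compound incubated with cells carrying the bicistronic replicon for as long as 3 days; interferon served as positive control.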

For `CN(Cc1ccccc1)c1cnc2c(c1)c(C#N)c(-c1ccc(S(=O)(=O)NC(C)(C)C)cc1)n2C1CCC1` [Cpd 351, 4-{5-[benzyl(methyl)amino]-3-cyano-1-cyclobutyl-1H-pyrrolo[2,3-b]pyridin-2-yl}-N-tert-butylbenzenesulfonamide], the IC50 [1] was 2000 to 5000 nM and the melting point was 168 to 171 °C.
For `Cc1ccnc(-n2c(-c3ccc(S(=O)(=O)N[C@@H](C)C(F)(F)F)cn3)c(C#N)c3cc(C(F)(F)F)cnc32)n1` [Cpd 355, 6-[3-cyano-1-(4-methylpyrimidin-2-yl)-5-(trifluoromethyl)-1H-pyrrolo[2,3-b]pyridin-2-yl]-N-[(2S)-1,1,1-trifluoropropan-2-yl]pyridine-3-sulfonamide], the IC50 [1] was < 500 nM and the melting point was 176 to 180 °C.
In the case of `C[C@H](NS(=O)(=O)c1ccc(-c2c(C(N)=O)c3cc(F)cnc3n2C2CCC2)nc1)C(F)(F)F` [Cpd 356, 1-cyclobutyl-5-fluoro-2-(5-{[(2S)-1,1,1-trifluoropropan-2-yl]sulfamoyl}pyridin-2-yl)-1H-pyrrolo[2,3-b]pyridine-3-carboxamide], the IC50 [1] is reported as < 500 nM and the melting point is reported as 223 to 225 °C.
For `COc1cnc2c(c1)c(C(N)=O)c(-c1ccc(S(=O)(=O)N[C@@H](C)C(F)(F)F)cn1)n2C1CCCC1` [Cpd 357, 1-cyclopentyl-5-methoxy-2-(5-{[(2S)-1,1,1-trifluoropropan-2-yl]sulfamoyl}pyridin-2-yl)-1H-pyrrolo[2,3-b]pyridine-3-carboxamide], the IC50 [1] was < 500 nM and the melting point was 263 to 264 °C.
With `CSc1cnc2c(c1)c(C(N)=O)c(-c1ccc(NS(=O)(=O)C(C)C)cc1)n2C1CCCC1` [Cpd 358, 1-cyclopentyl-5-(methylsulfanyl)-2-{4-[(propan-2-ylsulfonyl)amino]phenyl}-1H-pyrrolo[2,3-b]pyridine-3-carboxamide] the IC50 [1] was < 500 nM and the melting point was 250 to 252 °C.
In the case of `COc1cnc2c(c1)c(C(N)=O)c(-c1ccc(NS(=O)(=O)C(C)(C)C)cc1)n2C1CCCC1` [Cpd 359, 2-{4-[(tert-butylsulfonyl)amino]phenyl}-1-cyclopentyl-5-methoxy-1H-pyrrolo[2,3-b]pyridine-3-carboxamide], the IC50 [1] is reported as < 500 nM and the melting point is reported as 269 to 272 °C.
In the case of `C[C@H](NS(=O)(=O)c1ccc(-c2c(C#N)c3cc(C(F)(F)F)cnc3n2C2CC2)nc1)C(F)(F)F` [Cpd 360, 6-[3-cyano-1-cyclopropyl-5-(trifluoromethyl)-1H-pyrrolo[2,3-b]pyridin-2-yl]-N-[(2S)-1,1,1-trifluoropropan-2-yl]pyridine-3-sulfonamide], the IC50 [1] is reported as < 500 nM and the melting point is reported as 194 to 196 °C.
With `C[C@H](NS(=O)(=O)c1ccc(-c2c(C#N)c3cc([S+](C)[O-])cnc3n2C2CCC2)nc1)C(F)(F)F` (stereo partly drawn) [Cpd 363, [3-cyano-1-cyclobutyl-2-(5-{[(2S)-1,1,1-trifluoropropan-2-yl]sulfamoyl}pyridin-2-yl)-1H-pyrrolo[2,3-b]pyridin-5-yl](methyl)sulfoniumolate] the IC50 [1] was < 500 nM and the melting point was 257 to 258 °C.
In the case of `CSc1cnc2c(c1)c(C#N)c(-c1ccc(S(=O)(=O)NC3(C(F)(F)F)CC3)cc1)n2C1CCC1` [Cpd 364, 4-[3-cyano-1-cyclobutyl-5-(methylsulfanyl)-1H-pyrrolo[2,3-b]pyridin-2-yl]-N-[1-(trifluoromethyl)cyclopropyl]benzenesulfonamide], the IC50 [1] is reported as < 500 nM and the melting point is reported as 197 to 199 °C.
In the case of `COc1cnc2c(c1)c(C#N)c(-c1ccc(S(=O)(=O)N[C@@H](C)C(F)(F)F)cn1)n2-c1cnccn1` [Cpd 365, 6-[3-cyano-5-methoxy-1-(pyrazin-2-yl)-1H-pyrrolo[2,3-b]pyridin-2-yl]-N-[(2S)-1,1,1-trifluoropropan-2-yl]pyridine-3-sulfonamide], the IC50 [1] is reported as < 500 nM and the melting point is reported as 220 to 225 °C.
For `Cc1cnc2c(c1)c(C#N)c(-c1ccc(S(=O)(=O)N[C@@H](C)C(F)(F)F)cn1)n2-c1ccncc1` [Cpd 368, 6-[3-cyano-5-methyl-1-(pyridin-4-yl)-1H-pyrrolo[2,3-b]pyridin-2-yl]-N-[(2S)-1,1,1-trifluoropropan-2-yl]pyridine-3-sulfonamide], the IC50 [1] was < 500 nM and the melting point was 243 to 245 °C.
With `CC(C)(C)NS(=O)(=O)c1ccc(-c2c(C#N)c3cc(Cl)cnc3n2C2CCC2)cc1` [Cpd 371, N-tert-butyl-4-(5-chloro-3-cyano-1-cyclobutyl-1H-pyrrolo[2,3-b]pyridin-2-yl)benzenesulfonamide] the IC50 [1] was < 500 nM and the melting point was 244 to 246 °C.
For `NC(=O)c1c(-c2ccc(S(=O)(=O)NC3(C(F)(F)F)CC3)cc2)n(C2CCC2)c2ncc(C3CC3)cc12` [Cpd 373, 1-cyclobutyl-5-cyclopropyl-2-(4-{[1-(trifluoromethyl)cyclopropyl]sulfamoyl}phenyl)-1H-pyrrolo[2,3-b]pyridine-3-carboxamide], the IC50 [1] was < 500 nM and the melting point was 224 to 229 °C.
For `CC(C)(C)NS(=O)(=O)c1ccc(-c2c(C(N)=O)c3cc(C4CC4)cnc3n2C2CCC2)nc1` [Cpd 376, 2-[5-(tert-butylsulfamoyl)pyridin-2-yl]-1-cyclobutyl-5-cyclopropyl-1H-pyrrolo[2,3-b]pyridine-3-carboxamide], the IC50 [1] was < 500 nM and the melting point was 245 to 252 °C.
For `CCc1cnc2c(c1)c(C(N)=O)c(-c1ccc(S(=O)(=O)N[C@@H](C)C(F)(F)F)cn1)n2C1CCC1` [Cpd 377, 1-cyclobutyl-5-ethyl-2-(5-{[(2S)-1,1,1-trifluoropropan-2-yl]sulfamoyl}pyridin-2-yl)-1H-pyrrolo[2,3-b]pyridine-3-carboxamide], the IC50 [1] was < 500 nM and the melting point was 236 to 240 °C.
For `CCc1cnc2c(c1)c(C(N)=O)c(-c1ccc(S(=O)(=O)NC(C)(C)C(F)(F)F)cc1)n2C1CCC1` [Cpd 378, 1-cyclobutyl-5-ethyl-2-{4-[(1,1,1-trifluoro-2-methylpropan-2-yl)sulfamoyl]phenyl}-1H-pyrrolo[2,3-b]pyridine-3-carboxamide], the IC50 [1] was < 500 nM and the melting point was 185 to 193 °C.
With `CCc1cnc2c(c1)c(C(N)=O)c(-c1ccc(S(=O)(=O)NC3(C(F)(F)F)CC3)cc1)n2C1CCC1` [Cpd 379, 1-cyclobutyl-5-ethyl-2-(4-{[1-(trifluoromethyl)cyclopropyl]sulfamoyl}phenyl)-1H-pyrrolo[2,3-b]pyridine-3-carboxamide] the IC50 [1] was < 500 nM and the melting point was 173 to 179 °C.
For `Cc1cnc2c(c1)c(C#N)c(-c1ccc(S(=O)(=O)N[C@@H](C)C(F)(F)F)cn1)n2-c1cccnn1` [Cpd 383, 6-[3-cyano-5-methyl-1-(pyridazin-3-yl)-1H-pyrrolo[2,3-b]pyridin-2-yl]-N-[(2S)-1,1,1-trifluoropropan-2-yl]pyridine-3-sulfonamide], the IC50 [1] was < 500 nM and the melting point was 150 to 153 °C.
In the case of `Cc1cnc2c(c1)c(C#N)c(-c1ccc(S(=O)(=O)N[C@@H](C)C(F)(F)F)cn1)n2-c1cncnc1` [Cpd 384, 6-[3-cyano-5-methyl-1-(pyrimidin-5-yl)-1H-pyrrolo[2,3-b]pyridin-2-yl]-N-[(2S)-1,1,1-trifluoropropan-2-yl]pyridine-3-sulfonamide], the IC50 [1] is reported as < 500 nM and the melting point is reported as 231 to 233 °C.
For `CC(C)(C)S(=O)(=O)Nc1ccc(-c2c(C#N)c3cc(Cl)cnc3n2C2CCC2)cc1` [Cpd 385, N-[4-(5-chloro-3-cyano-1-cyclobutyl-1H-pyrrolo[2,3-b]pyridin-2-yl)phenyl]-2-methylpropane-2-sulfonamide], the IC50 [1] was < 500 nM and the melting point was 240 to 241 °C.
For `CSc1cnc2c(c1)c(C(N)=O)c(-c1ccc(NS(=O)(=O)C(C)(C)C)cc1)n2C1CCC1` [Cpd 387, 2-{4-[(tert-butylsulfonyl)amino]phenyl}-1-cyclobutyl-5-(methylsulfanyl)-1H-pyrrolo[2,3-b]pyridine-3-carboxamide], the IC50 [1] was < 500 nM and the melting point was 240 to 241 °C.
For `CC(C)(NS(=O)(=O)c1ccc(-c2c(C(N)=O)c3cccnc3n2C2CCC2)cc1)C(F)(F)F` [Cpd 388, 1-cyclobutyl-2-{4-[(1,1,1-trifluoro-2-methylpropan-2-yl)sulfamoyl]phenyl}-1H-pyrrolo[2,3-b]pyridine-3-carboxamide], the IC50 [1] was 500 to 2000 nM and the melting point was 240 to 242 °C.
In the case of `CSc1cnc2c(c1)c(C(N)=O)c(-c1ccc(S(=O)(=O)NC(C)(C)C(F)(F)F)cc1)n2C1CCC1` [Cpd 391, 1-cyclobutyl-5-(methylsulfanyl)-2-{4-[(1,1,1-trifluoro-2-methylpropan-2-yl)sulfamoyl]phenyl}-1H-pyrrolo[2,3-b]pyridine-3-carboxamide], the IC50 [1] is reported as < 500 nM and the melting point is reported as 204 to 205 °C.
In the case of `CSc1cnc2c(c1)c(C(N)=O)c(-c1ccc(S(=O)(=O)NC(C)(C)C)cc1)n2C1CCC1` [Cpd 392, 2-[4-(tert-butylsulfamoyl)phenyl]-1-cyclobutyl-5-(methylsulfanyl)-1H-pyrrolo[2,3-b]pyridine-3-carboxamide], the IC50 [1] is reported as < 500 nM and the melting point is reported as 224 to 226 °C.
For `CC(C)(C)NS(=O)(=O)c1ccc(-c2c(C(N)=O)c3cc(Cl)cnc3n2C2CCC2)cc1` [Cpd 393, 2-[4-(tert-butylsulfamoyl)phenyl]-5-chloro-1-cyclobutyl-1H-pyrrolo[2,3-b]pyridine-3-carboxamide], the IC50 [1] was < 500 nM and the melting point was 269 to 270 °C.
For `CC(C)(NS(=O)(=O)c1ccc(-c2c(C#N)c3cc(C(F)(F)F)cnc3n2C2CCC2)nc1)C(F)(F)F` [Cpd 395, 6-[3-cyano-1-cyclobutyl-5-(trifluoromethyl)-1H-pyrrolo[2,3-b]pyridin-2-yl]-N-(1,1,1-trifluoro-2-methylpropan-2-yl)pyridine-3-sulfonamide], the IC50 [1] was < 500 nM and the melting point was 174 to 176 °C.
With `N#Cc1c(-c2ccc(S(=O)(=O)NC3(C(F)(F)F)CC3)cn2)n(C2CCC2)c2ncc(C(F)(F)F)cc12` [Cpd 396, 6-[3-cyano-1-cyclobutyl-5-(trifluoromethyl)-1H-pyrrolo[2,3-b]pyridin-2-yl]-N-[1-(trifluoromethyl)cyclopropyl]pyridine-3-sulfonamide] the IC50 [1] was < 500 nM and the melting point was 156 to 158 °C.
